Measured values published in US10294202B2, “Pyrrolidinones as herbicides” (FMC Corporation, priority 2013, dated 2019).

What was measured:
Test in all cases: Test A pre-/postemergence herbicide test
pigweed = type: in vivo, Amaranthus retroflexus
From the text: (§1) Seeds of plant species selected from bamyardgrass (Echinochloa crus-galli), kochia (Kochia scoparia), ragweed (common ragweed, Ambrosia elatior), ryegrass, Italian (Italian ryegrass, Lolium multiflorum), crabgrass, large (large crabgrass Digitaria sanguinalis), giant foxtail (Setaria faberii), morningglory (Ipomoea spp.), pigweed (Amaranthus retroflexus), velvetleaf (Abutilon theophrasti), wheat (Triticum aestivum), and corn (Zea mays) were planted into a blend of loam soil and sand and treated preemergence with a directed soil spray using test chemicals formulated in a non-phytotoxic solvent mixture which included a surfactant. At the same time, plants selected from these crop and weed species and also blackgrass (Alopecurus myosuroides), and galium (catchweed bedstraw, Galium aparine) were planted in pots containing the same blend of loam soil and sand and treated with postemergence applications of test chemicals formulated in the same manner. Plants ranged in height from 2 to 10 cm and were in the one- to two-leaf stage for the postemergence treatment. Treated plants and untreated controls were maintained in a greenhouse for approximately 10 days, after which time all treated plants were compared to untreated controls and visually evaluated for injury. Plant response ratings, summarized in Table A, are based on a 0 to 100 scale where 0 is no effect and 100 is complete control. A dash (-) response means no test result.

velvetleaf = type: in vivo, Abutilon theophrasti
How it was run: (§2)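 Formulated compound (non-phytotoxic solvent, surfactant) sprayed pre- onto soil of seeded loam/sand pots or post- onto seedlings at 1–2 leaves; ~10 d greenhouse; 0–100 visual control rating versus untreated.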

crabgrass, large = type: in vivo, Digitaria sanguinalis
From the text: as §1

barnyardgrass = type: in vivo, Echinochloa crus-galli
From the text: as §1

wheat = type: in vivo, Triticum aestivum
From the text: as §1

corn = type: in vivo, Zea mays
How it was run: as §2

morningglory = type: in vivo, Ipomoea spp.
From the text: as §1

giant foxtail = type: in vivo, Setaria faberii
From the text: as §1

[1] = Postemergence, 1000 g ai/ha, 0 to 100 scale (0 no effect, 100 complete control)
[2] = preemergence, 1000 g ai/ha, 0 to 100 scale
[3] = preemergence, 1000 g ai/ha, 0 to 100 scale (0 no effect, 100 complete control)
[4] = Postemergence, 125 g ai/ha, 0 to 100 scale, 0 no effect, 100 complete control
[5] = Postemergence, 500 g ai/ha, 0 to 100 scale (0 no effect, 100 complete control)
[6] = Preemergence, 125 g ai/ha, visual rating on 0 to 100 scale (0 no effect, 100 complete control)
[7] = preemergence, 500 g ai/ha, 0 to 100 scale
[8] = Preemergence, 1000 g ai/ha, visual rating on 0 to 100 scale (0 no effect, 100 complete control), approx. 10 days
[9] = Postemergence, 125 g ai/ha, visual rating on 0 to 100 scale (0 no effect, 100 complete control), approx. 10 days

With `Cn1ccnc1C1CNC(=O)C1C(=O)Nc1cccc(F)c1F` (racemic) [Compound 252] the “Plant response rating, Pigweed” value (pigweed; [1]) was 0, the “Plant response rating, Velvetleaf” value (velvetleaf; [1]) was 0 and the “Plant response rating, Velvetleaf” value (velvetleaf; [2]) was 0. For the same compound, the “Plant response rating, Crabgrass, Large” value (crabgrass, large; [1]) was 0, the “Plant response rating, Crabgrass, Large” value (crabgrass, large; [2]) was 40 and the “Plant response rating, Barnyardgrass” value (barnyardgrass; [1]) was 0. For the same compound, the “Plant response rating, Barnyardgrass” value (barnyardgrass; [3]) was 20, the “Plant response rating, Wheat” value (wheat; [1]) was 0 and the “Plant response rating, Wheat” value (wheat; [2]) was 0. For the same compound, the “Plant response rating, Corn” value (corn; [1]) was 0, the “Plant response rating, Corn” value (corn; [2]) was 0 and the “Plant response rating, Morningglory” value (morningglory; [1]) was 0. For the same compound, the “Plant response rating, Morningglory” value (morningglory; [2]) was 0, the “Plant response rating, Foxtail, Giant” value (giant foxtail; [1]) was 0 and the “Plant response rating, Foxtail, Giant” value (giant foxtail; [2]) was 20.
In the case of `O=C1NCC(c2cc(Cl)cc(Cl)c2)C1C(=O)Nc1ccccc1F` (racemic) [Compounds 90], the “Plant response rating, Pigweed” value (pigweed; [4]) is reported as 0, the “Plant response rating, Pigweed” value (pigweed; [5]) is reported as 20 and the “Pigweed plant response rating” value (pigweed; [6]) is reported as 0. For the same compound, the “Plant response rating, Pigweed” value (pigweed; [7]) was 0, the “Plant response rating, Velvetleaf” value (velvetleaf; [4]) was 0 and the “Plant response rating, Velvetleaf” value (velvetleaf; [5]) was 0. For the same compound, the “Velvetleaf plant response rating” value (velvetleaf; [6]) was 0, the “Plant response rating, Velvetleaf” value (velvetleaf; [7]) was 0 and the “Plant response rating, Crabgrass, Large” value (crabgrass, large; [4]) was 50. The “Plant response rating, Crabgrass, Large” value (crabgrass, large; [5]) was 70, the “Crabgrass, Large plant response rating” value (crabgrass, large; [6]) was 70 and the “Plant response rating, Crabgrass, Large” value (crabgrass, large; [7]) was 80. For the same compound, the “Plant response rating, Barnyardgrass” value (barnyardgrass; [4]) was 30, the “Plant response rating, Barnyardgrass” value (barnyardgrass; [5]) was 70 and the “Barnyardgrass plant response rating” value (barnyardgrass; [6]) was 30. The “Plant response rating, Barnyardgrass” value (barnyardgrass; preemergence, 500 g ai/ha, 0 to 100 scale (0 no effect, 100 complete control)) was 70, the “Plant response rating, Wheat” value (wheat; [4]) was 0 and the “Plant response rating, Wheat” value (wheat; [5]) was 0. For the same compound, the “Wheat plant response rating” value (wheat; [6]) was 0, the “Plant response rating, Wheat” value (wheat; [7]) was 0 and the “Plant response rating, Corn” value (corn; [4]) was 0. The “Plant response rating, Corn” value (corn; [5]) was 30, the “Corn plant response rating” value (corn; [6]) was 0 and the “Plant response rating, Corn” value (corn; [7]) was 0. For the same compound, the “Plant response rating, Morningglory” value (morningglory; [4]) was 0, the “Plant response rating, Morningglory” value (morningglory; [5]) was 0 and the “Morningglory plant response rating” value (morningglory; [6]) was 0. The “Plant response rating, Morningglory” value (morningglory; [7]) was 0, the “Plant response rating, Foxtail, Giant” value (giant foxtail; [4]) was 40 and the “Plant response rating, Foxtail, Giant” value (giant foxtail; [5]) was 70. For the same compound, the “Foxtail, Giant plant response rating” value (giant foxtail; [6]) was 60 and the “Plant response rating, Foxtail, Giant” value (giant foxtail; [7]) was 70.
`O=C1NCC(c2ccc(F)c(F)c2)C1C(=O)Nc1ccncc1F` (centres unmarked) [Compound 22] was tested, and the “Plant response rating, Pigweed” value (pigweed; [1]) was 0, the “Plant response rating, Velvetleaf” value (velvetleaf; [1]) was 0 and the “Plant response rating, Velvetleaf” value (velvetleaf; [8]) was 0. The “Plant response rating, Crabgrass, Large” value (crabgrass, large; [1]) was 0, the “Plant response rating, Crabgrass, Large” value (crabgrass, large; [8]) was 70 and the “Plant response rating, Barnyardgrass” value (barnyardgrass; [1]) was 0. The “Plant response rating, Barnyardgrass” value (barnyardgrass; [8]) was 0, the “Plant response rating, Wheat” value (wheat; [1]) was 0 and the “Plant response rating, Wheat” value (wheat; [8]) was 0. The “Plant response rating, Corn” value (corn; [1]) was 0, the “Plant response rating, Corn” value (corn; [8]) was 0 and the “Plant response rating, Morningglory” value (morningglory; [1]) was 0. The “Plant response rating, Morningglory” value (morningglory; [8]) was 0, the “Plant response rating, Foxtail, Giant” value (giant foxtail; [1]) was 0 and the “Plant response rating, Foxtail, Giant” value (giant foxtail; [8]) was 30.
For `CN(C(=O)C1C(=O)NCC1c1ccc(F)c(F)c1)c1ccccc1F` (centres unmarked) [Compound 24], the “Plant response rating, Pigweed” value (pigweed; [1]) was 0, the “Plant response rating, Pigweed” value (pigweed; [8]) was 0 and the “Plant response rating, Velvetleaf” value (velvetleaf; [1]) was 0. For the same compound, the “Plant response rating, Velvetleaf” value (velvetleaf; [8]) was 60, the “Plant response rating, Crabgrass, Large” value (crabgrass, large; [1]) was 30 and the “Plant response rating, Crabgrass, Large” value (crabgrass, large; [8]) was 70. The “Plant response rating, Barnyardgrass” value (barnyardgrass; [1]) was 0, the “Plant response rating, Barnyardgrass” value (barnyardgrass; [8]) was 0 and the “Plant response rating, Wheat” value (wheat; [1]) was 0. For the same compound, the “Plant response rating, Wheat” value (wheat; [8]) was 0, the “Plant response rating, Corn” value (corn; [1]) was 0 and the “Plant response rating, Corn” value (corn; [8]) was 0. For the same compound, the “Plant response rating, Morningglory” value (morningglory; [1]) was 0, the “Plant response rating, Morningglory” value (morningglory; [8]) was 0 and the “Plant response rating, Foxtail, Giant” value (giant foxtail; [1]) was 0. The “Plant response rating, Foxtail, Giant” value (giant foxtail; [8]) was 40.
For `C#CCN(C(=O)C1C(=O)NCC1c1ccc(F)c(F)c1)c1ccccc1[N+](=O)[O-]` (centres unmarked) [Compound 265], the “Plant response rating, Pigweed” value (pigweed; [1]) was 0, the “Plant response rating, Pigweed” value (pigweed; [2]) was 0 and the “Plant response rating, Velvetleaf” value (velvetleaf; [1]) was 0. The “Plant response rating, Velvetleaf” value (velvetleaf; [2]) was 0, the “Plant response rating, Crabgrass, Large” value (crabgrass, large; [1]) was 0 and the “Plant response rating, Crabgrass, Large” value (crabgrass, large; [2]) was 0. The “Plant response rating, Barnyardgrass” value (barnyardgrass; [1]) was 0, the “Plant response rating, Barnyardgrass” value (barnyardgrass; [3]) was 0 and the “Plant response rating, Wheat” value (wheat; [1]) was 0. The “Plant response rating, Wheat” value (wheat; [2]) was 0, the “Plant response rating, Corn” value (corn; [1]) was 0 and the “Plant response rating, Corn” value (corn; [2]) was 0. The “Plant response rating, Morningglory” value (morningglory; [1]) was 0, the “Plant response rating, Morningglory” value (morningglory; [2]) was 0 and the “Plant response rating, Foxtail, Giant” value (giant foxtail; [1]) was 0. The “Plant response rating, Foxtail, Giant” value (giant foxtail; [2]) was 0.
For `C=CCN(C(=O)C1C(=O)NCC1c1ccc(F)c(F)c1)c1ccccc1[N+](=O)[O-]` (centres unmarked) [Compound 266], the “Plant response rating, Pigweed” value (pigweed; [9]) was 40, the “Plant response rating, Pigweed” value (pigweed; [1]) was 0 and the “Plant response rating, Pigweed” value (pigweed; [2]) was 0. The “Plant response rating, Velvetleaf” value (velvetleaf; [1]) was 0, the “Plant response rating, Velvetleaf” value (velvetleaf; [2]) was 0 and the “Plant response rating, Crabgrass, Large” value (crabgrass, large; [1]) was 0. The “Plant response rating, Crabgrass, Large” value (crabgrass, large; [2]) was 0, the “Plant response rating, Barnyardgrass” value (barnyardgrass; [1]) was 0 and the “Plant response rating, Barnyardgrass” value (barnyardgrass; [3]) was 0. For the same compound, the “Plant response rating, Wheat” value (wheat; [9]) was 40, the “Plant response rating, Wheat” value (wheat; [1]) was 0 and the “Plant response rating, Wheat” value (wheat; [2]) was 0. For the same compound, the “Plant response rating, Corn” value (corn; [1]) was 0, the “Plant response rating, Corn” value (corn; [2]) was 0 and the “Plant response rating, Morningglory” value (morningglory; [9]) was 20. The “Plant response rating, Morningglory” value (morningglory; [1]) was 0, the “Plant response rating, Morningglory” value (morningglory; [2]) was 0 and the “Plant response rating, Foxtail, Giant” value (giant foxtail; [1]) was 0. For the same compound, the “Plant response rating, Foxtail, Giant” value (giant foxtail; [2]) was 0.
